From US9067918B2, “Crystalline forms of 2-(2-methylamino-pyrimidin-4-yl)-1H-indole-5-carboxylic acid [ (S)-1-carbamoyl-2-(phenyl-pyrimidin-2-yl-amino)-ethyl ]-amide” (Sanofi, priority 2011, dated 2015) come the findings set out here.

Type in all cases: physicochemical
A short description of series [1]: Dynamic vapor sorption (DVS), determination of hygroscopicity. Particulars: for hygroscopicity, water uptake: at a high relative humidity of 80%; for weight increase in sorption step: 25° C. How it is done:
For the determination of the hygroscopicity, moisture sorption/desorption isotherms were recorded on a Surface Measurement Systems DVS-1 instrument. […] The data were evaluated with the software DVSWin V.2.15. In the DVS analysis of polymorph 1 and polymorph 2 of compound I, in the sorption steps of the two cycles the following weight increases were observed.

The nature of series [2]: Determination of solubility in a mixture of acetone and water (4:1, by volume). The note with it: acetone/water 4:1 by volume. How it is done: For the determination of the solubility in a mixture of acetone and water (4:1, by volume), samples of 0.5 mg to 50 mg of the test substances were suspended in a defined amount of the solvent (800 mg to 1200 mg) in screw cap vials with a magnetic stirring bar, which were placed in a temperature-controlled multiple stirring device equipped for transmission measurement (Avantium Crystal 16). With stirring at 700 rpm, the vials were cooled from room temperature to 0° C. and then heated to 60° C. with a heating rate of 3° C./h, kept at 60° C. for 2 h and cooled again to 0° C. with a cooling rate of 3° C./h. By means of transmission measurement it was determined whether the sample was dissolved (100% transmission), or crystals were present. For polymorph 1, polymorph 2, hydrate 1 and hydrate 2 of compound I the following solubilities in a mixture of acetone and water (4:1, by volume) were determined.

A short description of series [3]: Maturation experiments (slurry conversion), relative stability of crystalline forms. How it is done: By maturation experiments (slurry conversion) at 20° C. the relative stability of polymorphs 1 and 2 and hydrate 1 was investigated.
A polymorph mixture of 81 mg (Mixture of Polymorph 1 and Polymorph 2), 83 mg of Polymorph 1 and 60 mg of hydrate 1 was prepared. The mixture was subjected to XRPD analysis to confirm the presence of all three polymorphs and then distributed into five capillaries. These samples were kept in suspension at 20° C. for five days. After X-ray powder diffraction measurement of the suspensions these were dried over night at 40° C. and <100 mbar and again subjected to X-ray diffraction. Maturation experiments (a) to (e) were performed under the specified conditions, starting with the polymorph mixture described above.

A short description of the next series: Thermogravimetry (TG). Particulars: for TG weight loss: until the melting point. How it is done: Thermogravimetric analyses were performed with a METTLER TGA851e instrument. 100 μl Al-crucibles with sealed lid and hole were used and the measurements performed in a nitrogen gas flow of 50 ml/min. The measured data were evaluated with the software STARe V8.10. TG measurements with infra-red (IR) spectroscopic analysis of volatiles were performed with a METTLER TGA851e instrument as described, which was coupled to a Thermo-Nicolet 380 FT-IR spectrometer equipped with a cell for gas phase measurements. The measured IR spectra were evaluated using the software OMNIC V.7.3. In the TG analyses of polymorph 1 and polymorph 2 of compound I until the melting point, insignificant weight losses of 0.2% and 0.7%, respectively, were observed. In the TG analysis of hydrate 1 of compound I, a gradual weight loss of 6.4% was observed between room temperature and 120° C. […] The observed weight loss corresponds to about 1.9 mol of water per mol of 2-(2-methylamino-pyrimidin-4-yl)-1H-indole-5-carboxylic acid [(S)-1-carbamoyl-2-(phenyl-pyrimidin-2-yl-amino)-ethyl]-amide. In the TG FT-IR analysis of hydrate 2 of compound I, a weight loss of 17-18% of water mainly in two steps was observed between room temperature and 140° C., which corresponds to about 6 mol of water per mol of 2-(2-methylamino-pyrimidin-4-yl)-1H-indole-5-carboxylic acid [(S)-1-carbamoyl-2-(phenyl-pyrimidin-2-yl-amino)-ethyl]-amide.

A further series in a line: Solubility (qualitative). Particulars: qualitative statement; for solubility compared with polymorph 1: solvent not stated.
Where [4] appears, read: relative humidity 40%, first value (cycle 1).
The mark [5] stands for this setting: relative humidity 40%, second value (cycle 2).
Setting [6] is: relative humidity 60%, first value (cycle 1).
Where [7] appears, read: relative humidity 60%, second value (cycle 2).
Setting [8] is: relative humidity 80%, first value (cycle 1).
Where [9] appears, read: relative humidity 80%, second value (cycle 2).
The mark [10] stands for this setting: relative humidity 95%, first value (cycle 1).
The mark [11] stands for this setting: relative humidity 95%, second value (cycle 2).

In the case of `CNc1nccc(-c2cc3cc(C(=O)N[C@@H](CN(c4ccccc4)c4ncccn4)C(N)=O)ccc3[nH]2)n1` [Polymorph 1, 2-(2-methylamino-pyrimidin-4-yl)-1H-indole-5-carboxylic acid [(S)-1-carbamoyl-2-(phenyl-pyrimidin-2-yl-amino)-ethyl]-amide], the “hygroscopicity, water uptake” value in series [1] was “about 0.9%”. Besides, the “weight increase in sorption step” value in series [1] (setting [4]) is 0.5%/0.5%; in series [1] (setting [5]), 0.5%/0.5%; in series [1] (setting [6]), 0.6%/0.6%; in series [1] (setting [7]) it was 0.6%/0.6%; in series [1] (setting [8]) it was 0.9%/0.9%; in series [1] (setting [9]), 0.9%/0.9%. The “weight increase in sorption step” value in series [1] (setting [10]) was determined as 1.3%; in series [1] (setting [11]), 1.4%. For the same compound, the “Solubility [g in 100 g of solvent]” value in series [2] (36.9° C.) is 0.43 g in 100 g of solvent; in series [2] (44.7° C.) it was 0.50 g in 100 g of solvent; in series [2] (60.0° C.), 0.85 g in 100 g of solvent. For the same compound, the “thermodynamic stability among the polymorphs” value in series [3] (at temperatures above about 20° C., confirmed in phase conversion experiments) is “thermodynamically most stable polymorph”. Further, in series [3] (maturation experiments (a) to (e) at 20° C.), the “thermodynamic stability among polymorphs 1, 2 and hydrate 1” value is on record as “thermodynamically most stable”. The compound further displayed a TG weight loss in the series “Thermogravimetry (TG)” of 0.2%. The solubility in water result in the series “Solubility (qualitative)” is listed as “low solubility in water”.
With `CNc1nccc(-c2cc3cc(C(=O)N[C@@H](CN(c4ccccc4)c4ncccn4)C(N)=O)ccc3[nH]2)n1` [Hydrate 1, 2-(2-methylamino-pyrimidin-4-yl)-1H-indole-5-carboxylic acid [(S)-1-carbamoyl-2-(phenyl-pyrimidin-2-yl-amino)-ethyl]-amide dihydrate], in series [1] (qualitative statement), the hygroscopicity entry was “low hygroscopicity”. Moreover, the “Solubility [g in 100 g of solvent]” value was 2.11 g in 100 g of solvent in series [2] (38.6° C.), 3.39 g in 100 g of solvent in series [2] (49.7° C.) and 5.04 g in 100 g of solvent in series [2] (57.4° C.). Also, the “TG weight loss (water)” value in “Thermogravimetry (TG)” (between room temperature and 120° C.) came out at 6.4%. Further, the “solubility compared with polymorph 1” value in the series “Solubility (qualitative)” is on record as “higher solubility than polymorph 1”.
In the case of `CNc1nccc(-c2cc3cc(C(=O)N[C@@H](CN(c4ccccc4)c4ncccn4)C(N)=O)ccc3[nH]2)n1` [Hydrate 2, 2-(2-methylamino-pyrimidin-4-yl)-1H-indole-5-carboxylic acid [(S)-1-carbamoyl-2-(phenyl-pyrimidin-2-yl-amino)-ethyl]-amide hexahydrate], the entries for the “Solubility [g in 100 g of solvent]” value in series [2] (36.8° C.), in series [2] (46.1° C.) and in series [2] (55.9° C.) were 0.50 g in 100 g of solvent, 1.02 g in 100 g of solvent and 2.61 g in 100 g of solvent, respectively. In addition, in the series “Thermogravimetry (TG)” (between room temperature and 140° C., mainly in two steps), the “TG weight loss (water)” value is 17-18%.
In the case of `CNc1nccc(-c2cc3cc(C(=O)N[C@@H](CN(c4ccccc4)c4ncccn4)C(N)=O)ccc3[nH]2)n1` [Polymorph 2, 2-(2-methylamino-pyrimidin-4-yl)-1H-indole-5-carboxylic acid [(S)-1-carbamoyl-2-(phenyl-pyrimidin-2-yl-amino)-ethyl]-amide], the “hygroscopicity, water uptake” value in series [1] was “about 0.4%”. Further, the “weight increase in sorption step” value in series [1] (setting [4]) is given as 0.2%; in series [1] (setting [5]) it was 0.0%; in series [1] (setting [6]) it was 0.3%; in series [1] (setting [7]), 0.1%; in series [1] (setting [8]) it was 0.4%; in series [1] (setting [9]) it was 0.3%. Also, the “weight increase in sorption step” value in series [1] (setting [10]) is reported as 0.8%; in series [1] (setting [11]), 0.6%. The “Solubility [g in 100 g of solvent]” value is recorded as 1.02 g in 100 g of solvent in series [2] (46.0° C.) and 2.48 g in 100 g of solvent in series [2] (57.5° C.). The TG weight loss in the series “Thermogravimetry (TG)” was 0.7%. In “Solubility (qualitative)”, the “solubility compared with polymorph 1” value is reported as “higher solubility than polymorph 1”.
